In general, EC50 refers to the concentration needed to bring the measured effect to its halfway point.

The source of these data is publication PMC11801377, “A uniquely efficacious type of CFTR corrector with complementary mode of action” (Science Advances, 2024).

Assay [1] addresses T1, F508del-CFTR (Homo sapiens, UniProt P13569, DEL508-508). As to the kind of experiment: Pharmacochaperone trafficking assay: F508del-CFTR cell surface expression in U2OS cells. It counts as cell-based. On the set-up: host or cells: U2OS (PathHunter U2OS-F508del-CFTR MEM-EA). As for the experimental part:
This assay was adapted from the DiscoverX PathHunter pharmacochaperone trafficking assay, which is based on the enzyme fragment complementation technique. Briefly, the U2OS-F508del-CFTR cell line (DiscoveRx, #93-0987C3) is engineered to coexpress (i) human F508del-CFTR tagged with a Prolink (PK = short β-galactosidase fragment) and (ii) the remainder of the β-galactosidase enzyme [enzyme acceptor (EA)] localized to the PM. Incubation with compounds that increase trafficking of PK-tagged F508del-CFTR to the PM will lead to complementation of the EA fragment to form a functional β-galactosidase enzyme, which is quantified by a chemiluminescence reaction reporting cell surface CFTR expression. The same principle applies to the counterscreen using U2OS-ADRB2(W158A) cells (DiscoveRx, #93-0986C3). Freshly thawed U2OS-F508del-CFTR and U2OS-ADRB2(W158A) were seeded at 3500 or 5000 cells per well, respectively, in 20 μl per well of cell assay medium [McCoy (Life Technologies), 10% FBS, penicillin (100 U/ml), and streptomycin ([…])] in a 384 white low-volume plate (Corning). Predilutions of compounds in dimethyl sulfoxide (DMSO) were prepared in a 384-well polypropylene plate using an automated liquid-handling system. Dilution series were then transferred into cell assay medium in a polypropylene 384-well plate (Greiner) to obtain 5× concentrated aqueous working stocks. Five hours after cell seeding, 5× working stocks (5 μl per well) were added to the cells (20 μl per well) for an incubation overnight at 37°C. The next day, after 2 hours at room temperature, the cell plates were incubated with 10 μl of Flash detection reagent (#93-0247, DiscoverX) for 30 min, and chemiluminescence signals were detected with a microplate reader (Synergy MX, Agilent BioTek). Chemiluminescence data were normalized to the signal of basal vehicle-treated cells, and mean chemiluminescence values were converted to concentration-response curves for determination of EC50 and Emax values (GraphPad Prism).
Both above described cell lines [U2OS-F508del-CFTR and U2OS-ADRB2(W158A)] and assays were also used in the high-throughput screening campaign in which compounds were tested at 10 μM concentration with LUM (3 μM) or propranolol (100 nM) serving as 100% controls.

For assay [2], the target named is T2, MSD2-NBD2 fragment (M837-L1480-CFTR) (Homo sapiens, UniProt P13569).
T2 construct: expressed in transfected cells; host or cells: T-REx HEK293
T2 sequence (P13569 837-1480): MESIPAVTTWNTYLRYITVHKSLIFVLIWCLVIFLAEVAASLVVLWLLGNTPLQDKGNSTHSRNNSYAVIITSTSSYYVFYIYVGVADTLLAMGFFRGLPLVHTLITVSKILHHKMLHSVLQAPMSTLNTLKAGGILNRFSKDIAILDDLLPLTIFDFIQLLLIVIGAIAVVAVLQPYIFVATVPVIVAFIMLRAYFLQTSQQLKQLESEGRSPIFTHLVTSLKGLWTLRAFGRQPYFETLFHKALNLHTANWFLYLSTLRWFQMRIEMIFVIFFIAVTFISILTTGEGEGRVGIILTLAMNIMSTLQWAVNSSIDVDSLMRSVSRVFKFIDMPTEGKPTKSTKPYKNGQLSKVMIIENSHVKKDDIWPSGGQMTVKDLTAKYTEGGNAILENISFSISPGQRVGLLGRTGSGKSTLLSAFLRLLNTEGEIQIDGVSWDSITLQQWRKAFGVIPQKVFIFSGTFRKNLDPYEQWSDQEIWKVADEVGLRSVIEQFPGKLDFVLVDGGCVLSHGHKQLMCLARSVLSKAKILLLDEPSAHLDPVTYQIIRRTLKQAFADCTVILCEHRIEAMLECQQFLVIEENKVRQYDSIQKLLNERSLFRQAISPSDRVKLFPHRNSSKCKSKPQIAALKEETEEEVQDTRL
As to the kind of experiment: Truncated CFTR construct levels (immunoblotting), MSD2-NBD2 fragment. The class given is cell-based. As to conditions: HEK-TREx cells, 40 hours; C4a 10 μM. An excerpt:
(§1) The human CFTR expressing HEK cell pools with the mutations described below were generated by integrase-mediated homologous recombination of the CFTR sequence into the T-REx HEK293 background (Thermo Fisher Scientific). This expression system allows the tetracycline-inducible expression of genes of interest from one defined insertion site. Parental T-REx-HEK293 cells were cultivated in growth medium: Dulbecco’s modified Eagle’s medium + GlutaMAX-I (#31966, Life Technologies), 10% dialyzed FBS (Gibco, #26400), penicillin (100 U/ml), streptomycin (100 μg/ml), hygromycin B (0.1 mg/ml; Life Technologies), blasticidin (5 μg/ml; Invitrogen, #R210-01), and 0.1 mM nonessential amino acid solution (Invitrogen, #11140-035). Recombinant T-REx-HEK-CFTR cells were generated by lipofectamine transfection (Life Technologies) of plasmids containing mutated versions of CFTR (RefSeq NM_000492) and then cultivated in selection medium [growth medium containing Geneticin (1 mg/ml) (Invitrogen, #10131-027) instead of hygromycin]. The plasmid constructs were synthetized by GENEART (Thermo Fisher Scientific) and designed with the WT CFTR intron 5 to 6 (880 nucleotides) to prevent leaky expression issues during the cloning process in bacteria. […]
(In general: A western blot detects proteins with antibodies after separation by electrophoresis.)

A further assay concerns CFTR. On the set-up: method as in earlier work. As to conditions: ref [27] (GLPG-2737); ref [21], [26], [27] (ELX); cited from earlier work.
Assay [3] deals with T1, F508del-CFTR. As to the kind of experiment: Halide-sensitive YFP quenching assay in U2OS-F508del-CFTR-YFP cells. The class given is cell-based. More on the design: host or cells: U2OS (PathHunter U2OS-F508del-CFTR MEM-EA). As for the experimental part: U2OS-F508del-CFTR cells expressing Topaz-YFP F46L/H148Q/I152L were seeded at 20,000 cells per well into 384-well black clear-bottom plates in 40 μl per well growth medium (Mc COY’s 5A, Gibco, 10% FBS, penicillin/streptomycin), containing the various CFTR correctors at the indicated concentrations. The cells were coincubated with the compounds for 24 hours (37°C, 5% CO2). The next day, plates were washed twice with PBS^+ (55 μl per well; PBS containing 0.9 mM Ca^2+ and 0.5 mM Mg^2+). PBS^+ was fully removed, and cells were supplemented with 15 μl PBS^+. Then, 5 μl of 4× concentrated stocks of IVA or vehicle in dilution buffer [PBS^+, 0.1 μM forskolin, and 0.2% bovine serum albumin (fatty acid free) (pH 7.4)] were added and incubated for 30 min in the dark. For experiments with I-172 (Sigma- Aldrich), the inhibitor was added to the mix with either IVA or vehicle to reach a final concentration in cells of 20 μM. Then, plates were transferred to the FLIPR Tetra (fluorescence imaging plate reader; Molecular Devices: excitation: 470 to 495 nm; emission: 526 to 585 nm), baseline fluorescence reading of the YFP signal was performed for 6 s (10 × 0.6 s intervals) after which 25 μl of iodide buffer [137 mM NaI, 2.7 mM KCl, 1.5 mM KH2PO4, 8.1 mM Na2HPO4, 1 mM CaCl2, and 0.5 mM MgCl2 (pH 7.4)] was added, and fluorescence reading was continued for 70 s (50 × 0.6 s intervals; 20 x 2 s intervals) to assess YFP quenching through CFTR-mediated iodide influx. For analysis, fluorescence traces were aligned and normalized at the last time point before iodide addition (normalized fluorescence = 1). Normalized fluorescence values obtained 20 s after the beginning of the assay were used to assess the degree of YFP quenching, i.e., CFTR function (see fig. S1J). […] Then, plates were read and analyzed as above. […] Then, plates were transferred to the FLIPR Tetra and read and analyzed as above.

The next assay relates to F508del.L15W-CFTR. As to the kind of experiment: Site-directed mutagenesis immunoblotting, HEK-TREx, F508del.L15W-CFTR. It counts as cell-based, human. As to conditions: 40 h, 2 μM.
Text: as §1

The test system of another assay is F508del.K14A-CFTR. As to the kind of experiment: Site-directed mutagenesis immunoblotting, HEK-TREx, F508del.K14A-CFTR. The class given is cell-based, human. Particulars: 40 h, 2 μM.
Text: as §1

The mark [4] stands for this setting: U2OS cells, overnight treatment.

T1 sequence (P13569 with tags, fused parts or gaps DEL508-508): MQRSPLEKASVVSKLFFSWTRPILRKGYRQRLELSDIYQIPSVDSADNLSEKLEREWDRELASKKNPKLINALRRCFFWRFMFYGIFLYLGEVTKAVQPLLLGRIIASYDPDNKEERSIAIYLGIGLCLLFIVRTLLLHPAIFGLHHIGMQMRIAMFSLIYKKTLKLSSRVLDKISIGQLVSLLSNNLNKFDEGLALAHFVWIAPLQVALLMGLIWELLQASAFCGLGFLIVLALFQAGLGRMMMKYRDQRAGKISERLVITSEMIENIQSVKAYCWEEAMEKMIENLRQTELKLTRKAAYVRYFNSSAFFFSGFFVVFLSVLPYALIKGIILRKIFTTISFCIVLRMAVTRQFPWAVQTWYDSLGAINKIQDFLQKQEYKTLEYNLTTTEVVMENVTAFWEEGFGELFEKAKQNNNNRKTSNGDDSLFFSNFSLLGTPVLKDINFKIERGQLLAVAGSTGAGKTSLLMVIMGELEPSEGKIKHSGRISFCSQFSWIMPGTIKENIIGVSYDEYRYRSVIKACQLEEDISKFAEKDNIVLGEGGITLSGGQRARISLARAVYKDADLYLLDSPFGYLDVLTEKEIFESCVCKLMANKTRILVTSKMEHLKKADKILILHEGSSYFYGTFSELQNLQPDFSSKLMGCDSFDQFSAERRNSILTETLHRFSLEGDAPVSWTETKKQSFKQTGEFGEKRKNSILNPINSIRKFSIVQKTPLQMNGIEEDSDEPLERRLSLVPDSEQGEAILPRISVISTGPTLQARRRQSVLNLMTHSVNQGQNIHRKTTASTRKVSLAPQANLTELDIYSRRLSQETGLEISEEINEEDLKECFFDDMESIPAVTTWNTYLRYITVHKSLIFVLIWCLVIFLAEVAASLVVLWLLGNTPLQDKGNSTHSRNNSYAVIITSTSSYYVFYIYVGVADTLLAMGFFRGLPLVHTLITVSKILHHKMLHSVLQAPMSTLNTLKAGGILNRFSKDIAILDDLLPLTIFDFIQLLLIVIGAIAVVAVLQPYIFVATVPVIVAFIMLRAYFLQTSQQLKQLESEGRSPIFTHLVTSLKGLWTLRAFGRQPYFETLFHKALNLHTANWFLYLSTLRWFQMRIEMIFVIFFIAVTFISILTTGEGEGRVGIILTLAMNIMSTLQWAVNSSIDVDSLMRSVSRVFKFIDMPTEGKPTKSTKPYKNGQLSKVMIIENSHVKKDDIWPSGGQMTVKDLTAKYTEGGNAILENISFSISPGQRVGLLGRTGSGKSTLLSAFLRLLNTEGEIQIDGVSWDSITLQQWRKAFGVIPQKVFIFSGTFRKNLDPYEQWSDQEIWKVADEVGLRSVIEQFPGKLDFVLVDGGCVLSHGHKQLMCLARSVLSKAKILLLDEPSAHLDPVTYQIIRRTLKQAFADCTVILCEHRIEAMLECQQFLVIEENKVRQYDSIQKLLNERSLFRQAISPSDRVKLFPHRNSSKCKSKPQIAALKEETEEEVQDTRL

For the compound `C[C@@H]1CN(c2nc(-n3ccc(OCCC4(C(F)(F)F)CC4)n3)ccc2C(=O)NS(=O)(=O)c2ccccc2)C(C)(C)C1` [BAM, bamocaftor], the “maximal F508del-CFTR surface expression (Emax)” value at F508del-CFTR [1] (setting [4]) is given as “seven- to ninefold”. `COc1ccc(Cl)cc1Nc1nc(-c2sc(NC(=O)c3ccccc3)nc2C)cs1` [C4a, corrector 4a]: in assay [2], the “expression of the MSD2-NBD2 fragment” value is “increased the expression of its glycosylated and nonglycosylated forms”. In addition, the “maximal F508del-CFTR surface expression (Emax)” value on F508del-CFTR [1] (setting [4]) is given as “four- to fivefold”. Moreover, the “additivity in F508del-CFTR surface expression” value on F508del-CFTR [1] (applied on top of / titrated onto IDOR-4) was “full additivity or even synergy”. For `O=C(O)c1ccc([C@H]2C[C@@H](NC(=O)C3(c4ccc5c(c4)OC(F)(F)O5)CC3)c3ccc(OC(F)F)cc3O2)cc1` [GAL, galicaftor], the “maximal F508del-CFTR surface expression (Emax)” value at F508del-CFTR [1] (setting [4]) is recorded as “four- to fivefold”. On to `COC1CCN(C2CCN(c3cc(C(=O)NS(=O)(=O)N(C)C)nc4c3c(C3CCC3)nn4-c3ccc(F)cc3)CC2)CC1` [GLPG-2737], for which, in the assay with CFTR, the “acute effect on CFTR currents” value is given as “acute inhibitory”. Turning to `O=C(O)c1ccc(/C=C2\SC(=S)N(c3cccc(C(F)(F)F)c3)C2=O)cc1` [I-172], at F508del-CFTR [3] (I-172 20 μM), the “effect on corrector-induced YFP quenching responses” value is given as “blocked”. Consider `CC(C)CC1C(=O)N(C)CC(=O)NC(Cc2ccccc2)COc2ccccc2C(=O)NC(C(=O)NCCc2ccccc2)CC(=O)N1C` (stereo not drawn) [IDOR-0], for which, on F508del-CFTR [1] (setting [4]), the EC50 was 1600 nM and the “maximal F508del-CFTR surface expression (Emax)” value was 3 fold over baseline. As to `COc1nc(C)cc2c1C(=O)NC(C(=O)NCCc1cccc(N=[N+]=[N-])c1)CC(=O)N(C)C(CC(C)C)C(=O)N(C)C(CC1CCCC1)C(=O)NC(Cc1ccccc1)CO2` (stereo not drawn) [IDOR-6A], in the assay on F508del.L15W-CFTR, the “correction by macrocycles versus [LUM + BAM]” value is recorded as “little difference”. Further, in the assay with F508del.K14A-CFTR, the “weaker correction by macrocycles as compared to [LUM + BAM]” value is “two- to fourfold”. In the case of `CC(C)(C)c1cc(C(C)(C)C)c(NC(=O)c2c[nH]c3ccccc3c2=O)cc1O` [IVA, ivacaftor], the EC80 of potentiator at F508del-CFTR [3] (concentration used as ~EC80) is on record as about 2 nM.
